What is called pIC50 is −log10 of the IC50, conventionally taken in molar units.

One test has as its system HCT116 MTAP null cells. The test can be described thus: HCT116 MTAP null cell line proliferation / cell viability (CellTiter-Glo, 6 days). It is filed as cell-based. To be noted: 144 h; HCT116 MTAP null cells, 6 days treatment, CellTiter-Glo cell viability; read-out: HCT-116 MTAP null IC50. How it is done:
(§1) HCT116 Proliferation Activity
(§2) To assess selective anti-proliferative activity of compounds of the invention in cells that have loss expression of MTAP, an HCT-116 isogenic cell line pair was utilized where one cell line was engineered to genetically knockout both MTAP alleles. Cell viability was then assessed in both the parent HCT-116 cell line and the MTAP null cell line after 6 days of treatment with compounds of the present invention. Selective anti-proliferative activity in the MTAP null cell line indicates MTA-cooperative inhibition of PRMT5 and ability to inhibit growth of cancer cells that have loss of MTAP.
(§3) HCT116 MTAP null and WT cells were seeded in 96-well tissue culture plates in RPMI 1640 media+10% fetal bovine serum. Plates were incubated overnight at 37° C. and 5% CO2. Cells were then treated with an 8- or 9-point serial dilution of compound, using a top concentration of 1, or 10 μM, 1:3 serial dilution steps and, a DMSO-only control. Cells were incubated in the presence of drug for 6 days. Effects on cell viability were measured with the CellTiter-Glo® Luminescent Cell Viability Assay (Promega) per manufacturer's recommendation. Assay plates were read on an EnVision™ Multilabel Reader using the Ultra-Sensitive luminescence module. IC50 values were calculated with GraphPad Prism v 5.01 using symmetrical sigmoidal dose-response least squares fit with Hill slope fixed to −1 and top constrain to 100% or GeneData Screener using a 4-parameter logistic model to fit dose response curves.
(§4) Alternatively, compounds could be assayed with a 384 well plate format:
(§5) Compounds were pre-spotted into 384 well plates with a 22-point serial dilution of compound, using a top concentration of 10 or 50 μM, 1:2 serial dilution steps and, a DMSO-only control. HCT116 MTAP null and WT cells were then seeded as above and after 6 days effects on cell viability were measured with the CellTiter-Glo® Luminescent Cell Viability Assay (Promega). Assay plates were read as above and IC50 values were calculated with GeneData Screener using a 4-parameter logistic model to fit dose response curves. The reported IC50 represents the value where the curve transits 50% of control.
(Cellular ATP, detected with luciferase, serves as a proxy for viable cell number.)

For a further test, the system named is HCT116 WT cells. In words: HCT116 WT (parent) cell line proliferation / cell viability (CellTiter-Glo, 6 days). It is filed as cell-based. Conditions: Homo sapiens, HCT-116, 144 h, 6 days treatment. How it is done: as §1, §2, §3, §4, §5

pIC50: −log10 of the molar value.

Regarding `CN(C(=O)c1cc2c(cc1F)nc(N)c1cnn(C)c12)C1COc2cc(C(F)(F)F)cc(F)c21` (racemic) [Example 245, 4-amino-7-fluoro-N-((3R)-4-fluoro-6-(trifluoromethyl)-2,3-dihydro-1-benzofuran-3-yl)-N,1-dimethyl-1H-pyrazolo-[4,3-c]quinoline-8-carboxamide and 4-amino-7-fluoro-N-((3S)-4-fluoro-6-(trifluoromethyl)-2,3-dihydro-1-benzofuran-3-yl)-N,1-dimethyl-1H-pyrazolo[4,3-c]quinoline-8-carboxamide], the negative logarithm of the IC50 (pIC50) in the test on HCT116 MTAP null cells is 7.72; with HCT116 WT cells, 6.06.

For the compound `CN(C(=O)c1cc2c(cc1F)nc(N)c1cnn(C)c12)C1c2ccc(C(F)(F)F)nc2CC1(F)F` (racemic) [Example 246, 4-amino-N-((5R)-6,6-difluoro-2-(trifluoromethyl)-6,7-dihydro-5H-cyclopenta[b]-pyridin-5-yl)-7-fluoro-N,1-dimethyl-1H-pyrazolo[4,3-c]-quinoline-8-carboxamide and 4-amino-N-((5S)-6,6-difluoro-2-(trifluoromethyl)-6,7-dihydro-5H-cyclopenta[b]pyridin-5-yl)-7-fluoro-N,1-dimethyl-1H-pyrazolo[4,3-c]quinoline-8-carboxamide], the pIC50 was 6.21 with HCT116 MTAP null cells and 5.07 in the test with HCT116 WT cells.

For the compound `CN(C(=O)c1cc2c(cc1Cl)nc(N)c1cnn(C)c12)C1CCc2nc(C(F)(F)F)ccc21` (racemic) [Example 248, 4-amino-7-chloro-N,1-dimethyl-N-((5R)-2-(trifluoromethyl)-6,7-dihydro-5H-cyclopenta[b]-pyridin-5-yl)-1H-pyrazolo[4,3-c]quinoline-8-carboxamide and 4-amino-7-chloro-N,1-dimethyl-N-((5S)-2-(trifluoromethyl)-6,7-dihydro-5H-cyclopenta[b]-pyridin-5-yl)-1H-pyrazolo[4,3-c]quinoline-8-carboxamide], the pIC50 was 7.74 in the test with HCT116 MTAP null cells and 6.20 in the test with HCT116 WT cells.

For `CN(C(=O)c1cc2c3c(c(N)nc2cc1F)COC3)C1CCOc2cc(C(F)(F)F)ccc21` (racemic) [Example 272, 4-amino-7-fluoro-N-methyl-N-((4R)-7-(trifluoromethyl)-3,4-dihydro-2H-chromen-4-yl)-1,3-dihydrofuro[3,4-c]quinoline-8-carboxamide and 4-amino-7-fluoro-N-methyl-N-((4S)-7-(trifluoromethyl)-3,4-dihydro-2H-chromen-4-yl)-1,3-dihydrofuro[3,4-c]quinoline-8-carboxamide], the negative-log IC50 (pIC50) in the test with HCT116 MTAP null cells is 6.69; in the test on HCT116 WT cells, 5.27.

Regarding `CN(C(=O)c1cc2c(cc1F)nc(N)c1cnn(C)c12)C1CCOc2cc(C(F)(F)F)ccc21` (racemic) [Example 290, 4-amino-7-fluoro-N,1-dimethyl-N-((4R)-7-(trifluoromethyl)-3,4-dihydro-2H-chromen-4-yl)-1H-pyrazolo[4,3-c]quinoline-8-carboxamide and 4-amino-7-fluoro-N,1-dimethyl-N-((4S)-7-(trifluoromethyl)-3,4-dihydro-2H-chromen-4-yl)-1H-pyrazolo[4,3-c]quinoline-8-carboxamide], the pIC50 in the test with HCT116 MTAP null cells is 7.21; in the test on HCT116 WT cells, 5.61.

Consider `CN(C(=O)c1ccc2nc(N)c3c(c2c1)COC3)C1CCc2nc(C(F)(F)F)ccc21` (racemic) [Example 444, 4-amino-N-methyl-N-((5R)-2-(trifluoromethyl)-6,7-dihydro-5H-cyclopenta[b]pyridin-5-yl)-1,3-dihydrofuro[3,4-c]quinoline-8-carboxamide and 4-amino-N-methyl-N-((5S)-2-(trifluoromethyl)-6,7-dihydro-5H-cyclopenta[b]pyridin-5-yl)-1,3-dihydrofuro[3,4-c]quinoline-8-carboxamide], for which the negative logarithm of the IC50 (pIC50) in the test with HCT116 MTAP null cells is 6.46; in the test on HCT116 WT cells it was 4.92.

`CN(C(=O)c1ccc2nc(N)c3c(c2c1)COC3)C1COc2cc(C(F)(F)F)ncc21` (racemic) [Example 445, 4-amino-N-methyl-N-((3R)-6-(trifluoromethyl)-2,3-dihydrofuro[3,2-c]pyridin-3-yl)-1,3-dihydrofuro[3,4-c]quinoline-8-carboxamide and 4-amino-N-methyl-N-((3S)-6-(trifluoromethyl)-2,3-dihydrofuro[3,2-c]pyridin-3-yl)-1,3-dihydrofuro[3,4-c]quinoline-8-carboxamide]: the pIC50 is 6.50 in the test with HCT116 MTAP null cells and 4.90 in the test on HCT116 WT cells.

Take `Nc1nc2ccc(C(=O)N(C3CC3)C3COc4cc(C(F)(F)F)ccc43)cc2c2c1COC2` (racemic) [Example 449, 4-amino-N-cyclopropyl-N-((3R)-6-(trifluoromethyl)-2,3-dihydro-1-benzofuran-3-yl)-1,3-dihydrofuro[3,4-c]quinoline-8-carboxamide and 4-amino-N-cyclopropyl-N-((3S)-6-(trifluoromethyl)-2,3-dihydro-1-benzofuran-3-yl)-1,3-dihydrofuro[3,4-c]quinoline-8-carboxamide]: the pIC50 with HCT116 MTAP null cells was 7.02; in the test with HCT116 WT cells, 5.48.

For `CN(C(=O)c1ccc2nc(N)c3c(c2c1)COC3)C1COc2cc(Br)cnc21` (racemic) [Example 450, 4-amino-N-((3R)-6-bromo-2,3-dihydrofuro[3,2-b]pyridin-3-yl)-N-methyl-1,3-dihydrofuro[3,4-c]quinoline-8-carboxamide and 4-amino-N-((3S)-6-bromo-2,3-dihydrofuro[3,2-b]pyridin-3-yl)-N-methyl-1,3-dihydrofuro[3,4-c]quinoline-8-carboxamide], the figures for the pIC50 in the test with HCT116 MTAP null cells and in the test on HCT116 WT cells were 5.68 and 4.42, respectively.

With `CN(C(=O)c1cc2c3c(c(N)nc2cn1)COC3)C1COc2cc(OC(F)F)ccc21` (racemic) [Example 453, 4-amino-N-((3R)-6-(difluoromethoxy)-2,3-dihydro-1-benzofuran-3-yl)-N-methyl-1,3-dihydrofuro[3,4-c][1,7]naphthyridine-8-carboxamide and 4-amino-N-((3S)-6-(difluoromethoxy)-2,3-dihydro-1-benzofuran-3-yl)-N-methyl-1,3-dihydrofuro[3,4-c][1,7]naphthyridine-8-carboxamide], the pIC50 was 6.61 with HCT116 MTAP null cells and 4.88 in the test on HCT116 WT cells.

For `CN(C(=O)c1cc2c3c(c(N)nc2cn1)COC3)C1COc2cc(C(F)(F)F)ncc21` (racemic) [Example 454, 4-amino-N-methyl-N-((3R)-6-(trifluoromethyl)-2,3-dihydrofuro[3,2-c]pyridin-3-yl)-1,3-dihydrofuro[3,4-c][1,7]naphthyridine-8-carboxamide and 4-amino-N-methyl-N-((3S)-6-(trifluoromethyl)-2,3-dihydrofuro[3,2-c]pyridin-3-yl)-1,3-dihydrofuro[3,4-c][1,7]naphthyridine-8-carboxamide], the pIC50 in the test on HCT116 MTAP null cells was 5.45; with HCT116 WT cells, 4.30.

As for `CN(C(=O)c1cc2c3c(c(N)nc2cn1)COC3)C1COc2cc(C(F)(F)F)cc(F)c21` (racemic) [Example 455, 4-amino-N-((3R)-4-fluoro-6-(trifluoromethyl)-2,3-dihydro-1-benzofuran-3-yl)-N-methyl-1,3-dihydrofuro[3,4-c][1,7]naphthyridine-8-carboxamide and 4-amino-N-((3S)-4-fluoro-6-(trifluoromethyl)-2,3-dihydro-1-benzofuran-3-yl)-N-methyl-1,3-dihydrofuro[3,4-c][1,7]naphthyridine-8-carboxamide], the results for the pIC50 in the test with HCT116 MTAP null cells and with HCT116 WT cells were 6.91 and 5.25, respectively.
